Measurements from ChEMBL document CHEMBL3813651, “Structure-activity relationships of dibenzoylhydrazines for the inhibition of P-glycoprotein-mediated quinidine transport” (Bioorg Med Chem, 2016).

Tests used:
[1] = biological target: ATP-dependent translocase ABCB1 (Homo sapiens, UniProt P08183); experiment: Inhibition of human P-glycoprotein transfected in pig LLC-GA5-COL150 cells assessed as quinidine transport from apical to basolateral side preincubated for 30 mins followed by quinidine addition to apical side measured after 60 mins; format: cell-based; set-up: log(activity): scale not given here; conditions: for log(activity): human, llc-ga5-col150, 1 h
P-glycoprotein (ABCB1) [2] = biological target: T1, P-glycoprotein (ABCB1) (Homo sapiens, UniProt P08183); experiment: Inhibition of human P-glycoprotein transfected in pig LLC-GA5-COL150 cells assessed as quinidine transport from apical to basolateral side at 30 uM preincubated for 30 mins followed by quinidine addition to apical side measured after 60 mins; format: cell-based; conditions: LLC-PK1, probe quinidine
[3] = Lipophilicity , logP of the compound; format: physicochemical; conditions: octanol/water
P-glycoprotein (ABCB1) [4] = biological target: T1, P-glycoprotein (ABCB1); experiment: Inhibition of human P-glycoprotein transfected in pig LLC-GA5-COL150 cells assessed as quinidine transport from apical to basolateral side at 2 uM preincubated for 30 mins followed by quinidine addition to apical side measured after 60 mins; conditions: LLC-PK1, probe quinidine

ATP-dependent translocase ABCB1, sequence (P08183 whole entry): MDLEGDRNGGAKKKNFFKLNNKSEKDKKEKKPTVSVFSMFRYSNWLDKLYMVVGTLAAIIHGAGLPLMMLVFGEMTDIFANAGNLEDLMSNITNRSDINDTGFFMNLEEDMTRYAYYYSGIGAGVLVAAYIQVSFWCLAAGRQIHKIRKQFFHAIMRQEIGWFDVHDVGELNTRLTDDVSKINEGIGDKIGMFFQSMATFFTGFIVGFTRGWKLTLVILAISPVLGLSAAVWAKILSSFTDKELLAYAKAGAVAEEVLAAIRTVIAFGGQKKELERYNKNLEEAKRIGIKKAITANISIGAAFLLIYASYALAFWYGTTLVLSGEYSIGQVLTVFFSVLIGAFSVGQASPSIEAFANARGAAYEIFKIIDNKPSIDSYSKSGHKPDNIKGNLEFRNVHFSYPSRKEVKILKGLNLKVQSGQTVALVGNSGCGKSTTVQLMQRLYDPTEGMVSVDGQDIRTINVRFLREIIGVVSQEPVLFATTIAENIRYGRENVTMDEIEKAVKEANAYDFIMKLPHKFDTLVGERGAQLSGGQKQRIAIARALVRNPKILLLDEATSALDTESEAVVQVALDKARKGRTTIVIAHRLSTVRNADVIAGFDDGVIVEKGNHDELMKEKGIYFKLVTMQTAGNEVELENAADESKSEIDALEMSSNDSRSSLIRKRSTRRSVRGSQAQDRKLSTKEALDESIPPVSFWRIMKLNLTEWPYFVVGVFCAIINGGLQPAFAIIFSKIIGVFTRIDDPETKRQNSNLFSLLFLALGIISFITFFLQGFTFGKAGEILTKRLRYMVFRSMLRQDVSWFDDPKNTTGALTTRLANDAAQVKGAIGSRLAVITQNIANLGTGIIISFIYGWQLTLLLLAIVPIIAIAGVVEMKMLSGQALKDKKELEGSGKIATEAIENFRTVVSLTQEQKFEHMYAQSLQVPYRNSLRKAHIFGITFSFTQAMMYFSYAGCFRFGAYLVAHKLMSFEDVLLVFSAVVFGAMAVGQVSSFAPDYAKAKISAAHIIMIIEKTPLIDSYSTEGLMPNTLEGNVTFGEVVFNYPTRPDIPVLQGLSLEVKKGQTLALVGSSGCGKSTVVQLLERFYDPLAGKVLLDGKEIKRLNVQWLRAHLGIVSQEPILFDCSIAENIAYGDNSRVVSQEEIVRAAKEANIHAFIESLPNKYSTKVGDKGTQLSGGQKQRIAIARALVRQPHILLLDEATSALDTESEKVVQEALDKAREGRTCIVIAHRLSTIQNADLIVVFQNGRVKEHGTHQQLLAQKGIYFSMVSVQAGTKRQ
T1 sequence (P08183 whole entry): as above

log(activity) [1] | inhibition at 1 h, 30 µM (P-glycoprotein (ABCB1) [2]) | IC50 [1] | logP [3] | inhibition at 1 h, 2 µM (P-glycoprotein (ABCB1) [4]) | SMILES
-1.25 | 5.4% | – | – | – | CC(C)(C)N(NC(=O)c1ccccc1)C(=O)c1ccccc1Cl
-1.36 | 4.2% | – | 2.35 | – | CC(C)(C)N(NC(=O)c1c(F)cccc1F)C(=O)c1ccccc1Cl
-1.1 | 7.3% | – | – | – | Cc1ccc(C(=O)NN(C(=O)c2ccccc2Cl)C(C)(C)C)cc1
-0.09 | 45% | – | 3.75 | – | CC(C)(C)N(NC(=O)c1cccc(Cl)c1Cl)C(=O)c1ccccc1Cl
-0.99 | 9.3% | – | 3.4 | – | Cc1cccc(C(=O)NN(C(=O)c2ccccc2Cl)C(C)(C)C)c1C
-0.86 | 12.2% | – | 3.46 | – | COc1cccc(C(=O)NN(C(=O)c2ccccc2Cl)C(C)(C)C)c1C
-0.44 | 26.8% | 73.6 µM | 3.4 | – | Cc1ccc(C)c(C(=O)NN(C(=O)c2ccccc2Cl)C(C)(C)C)c1
-0.58 | 20.8% | – | 3.65 | – | Cc1ccc(C(=O)NN(C(=O)c2ccccc2Cl)C(C)(C)C)cc1C
-1.25 | 5.3% | – | – | – | CC(C)(C)N(NC(=O)c1ccccc1Cl)C(=O)c1ccccc1Cl
-0.95 | 10.1% | – | 2.91 | – | CC(C)(C)N(NC(=O)c1ccccc1Br)C(=O)c1ccccc1Cl
-0.55 | 21.8% | – | 3.11 | – | CC(C)(C)N(NC(=O)c1ccccc1I)C(=O)c1ccccc1Cl
-1.08 | 7.6% | – | – | – | CC(C)(C)N(NC(=O)c1cccc(F)c1)C(=O)c1ccccc1Cl
-0.31 | 33% | – | 3.62 | – | CC(C)(C)N(NC(=O)c1cccc(Br)c1)C(=O)c1ccccc1Cl
-0.98 | 9.5% | – | 2.48 | – | CC(C)(C)N(NC(=O)c1cccc(C#N)c1)C(=O)c1ccccc1Cl
-0.89 | 11.5% | – | – | – | Cc1cccc(C(=O)NN(C(=O)c2ccccc2Cl)C(C)(C)C)c1
-0.92 | 10.8% | – | 2.81 | – | COc1cccc(C(=O)NN(C(=O)c2ccccc2Cl)C(C)(C)C)c1

log(activity) [1] | inhibition at 1 h, 30 µM (P-glycoprotein (ABCB1) [2]) | IC50 [1] | logP [3] | inhibition at 1 h, 2 µM (P-glycoprotein (ABCB1) [4]) | SMILES
-1.3 | 4.8% | – | – | – | CC(C)(C)N(NC(=O)c1ccc(F)cc1)C(=O)c1ccccc1Cl
-1.13 | 6.9% | – | 2.67 | – | CC(C)(C)N(NC(=O)c1c(F)cccc1Cl)C(=O)c1ccccc1Cl
-1.14 | 6.7% | – | 2.37 | – | COc1ccccc1C(=O)NN(C(=O)c1ccccc1Cl)C(C)(C)C
-0.1 | 44.2% | 46.7 µM | 3.75 | – | CC(C)(C)N(NC(=O)c1cc(Cl)ccc1Cl)C(=O)c1ccccc1Cl
0.25 | 63.9% | – | 3.87 | – | CC(C)(C)N(NC(=O)c1cccc(I)c1)C(=O)c1ccccc1Cl
– | 97.2% | – | 4.29 | – | CC(C)(C)N(NC(=O)c1cc(Cl)cc(Cl)c1)C(=O)c1ccccc1Cl
-1.21 | 5.8% | – | 3.03 | – | CC(C)(C)N(NC(=O)c1c(Cl)cccc1Cl)C(=O)c1ccccc1Cl
-1.13 | 7% | – | 2.84 | – | CSc1ccccc1C(=O)NN(C(=O)c1ccccc1Cl)C(C)(C)C
0.61 | 80.3% | 12.5 µM | 3.77 | – | CC(C)(C)N(NC(=O)c1ccccc1-c1ccccc1)C(=O)c1ccccc1Cl
-0.73 | 15.6% | – | 3.02 | – | CC(C)(C)N(NC(=O)c1ccccc1C(F)(F)F)C(=O)c1ccccc1Cl
– | 98.9% | – | 4.25 | – | CC(C)(C)N(NC(=O)c1ccc(Cl)c(Cl)c1)C(=O)c1ccccc1Cl
-0.3 | 33.4% | 43.8 µM | 3.7 | – | CC(C)(C)N(NC(=O)c1cccc(C(F)(F)F)c1)C(=O)c1ccccc1Cl
-0.7 | 16.6% | 64.4 µM | 2.73 | – | CC(C)(C)N(NC(=O)c1cccc([N+](=O)[O-])c1)C(=O)c1ccccc1Cl
-0.16 | 40.7% | – | 3.71 | – | CC(C)(C)N(NC(=O)c1ccc(Cl)cc1Cl)C(=O)c1ccccc1Cl
– | 1.7% | – | 1.99 | – | CC(C)(C)N(NC(=O)c1ccccc1[N+](=O)[O-])C(=O)c1ccccc1Cl

Continued, compound first:

SMILES | log(activity) [1] | inhibition at 1 h, 30 µM (P-glycoprotein (ABCB1) [2]) | IC50 [1] | logP [3] | inhibition at 1 h, 2 µM (P-glycoprotein (ABCB1) [4])
Cc1cc(C)cc(C(=O)N(NC(=O)c2ccccc2)C(C)(C)C)c1 | -0.69 | 17% | 100 µM | – | –
Cc1cc(C)cc(C(=O)N(NC(=O)c2cccc(C)c2C)C(C)(C)C)c1 | -0.16 | 41.1% | – | 4.43 | –
Cc1cc(C)cc(C(=O)N(NC(=O)c2ccc(Cl)cc2)C(C)(C)C)c1 | -0.78 | 14.2% | – | 4.31 | –
CC(C)(C)N(NC(=O)c1ccccc1F)C(=O)c1ccccc1Cl | -1.21 | 5.9% | – | – | –
CC(C)(C)N(NC(=O)c1cccc(Cl)c1)C(=O)c1ccccc1Cl | -0.43 | 27.3% | 45.7 µM | – | –
CCCc1ccc(C(=O)NN(C(=O)c2ccccc2Cl)C(C)(C)C)cc1 | -0.02 | 48.7% | – | – | –
COc1ccc(C(=O)NN(C(=O)c2ccccc2Cl)C(C)(C)C)cc1 | -1.13 | 6.9% | – | – | –
CC(=O)c1ccc(C(=O)NN(C(=O)c2ccccc2Cl)C(C)(C)C)cc1 | -1.25 | 5.3% | – | – | –
CC(C)(C)N(NC(=O)c1ccc(C#N)cc1)C(=O)c1ccccc1Cl | -1.29 | 4.9% | – | – | –
CCc1ccc(C(=O)NN(C(=O)c2ccccc2Cl)C(C)(C)C)cc1 | -0.52 | 23% | – | – | –
COc1cccc(C(=O)NN(C(=O)c2cc(C)cc(C)c2)C(C)(C)C)c1 | -0.28 | 34.2% | 58.1 µM | 3.75 | –
Cc1ccc(C(=O)NN(C(=O)c2cc(C)cc(C)c2)C(C)(C)C)cc1 | -0.35 | 30.9% | – | 3.95 | –
CC(C)(C)N(NC(=O)c1ccc(C(F)(F)F)cc1)C(=O)c1ccccc1Cl | -0.71 | 16.2% | – | – | –
Cc1cc(C)cc(C(=O)N(NC(=O)c2ccc(F)c(F)c2F)C(C)(C)C)c1 | – | 2.5% | – | 3.64 | –
CCOc1cccc(C(=O)NN(C(=O)c2cc(C)cc(C)c2)C(C)(C)C)c1 | 0.02 | 50.9% | 39.9 µM | 4.28 | –
Cc1cc(C)cc(C(=O)N(NC(=O)c2ccc(C(F)(F)F)cc2)C(C)(C)C)c1 | – | 0.9% | – | 4.66 | –
CCCc1ccc(C(=O)NN(C(=O)c2cc(C)cc(C)c2)C(C)(C)C)cc1 | 0.15 | 58.4% | 15.2 µM | 4.86 | –
Cc1cc(C)cc(C(=O)N(NC(=O)c2cccc(O)c2C)C(C)(C)C)c1 | – | 0.5% | – | 3.84 | –
Cc1cc(C)cc(C(=O)NN(C(=O)c2ccccc2Cl)C(C)(C)C)c1 | -0.54 | 22.4% | – | 3.67 | –
Cc1cc(C)cc(C(=O)N(NC(=O)c2cccc(O)c2)C(C)(C)C)c1 | – | 1% | – | 3.34 | –
Cc1cccc(C(=O)NN(C(=O)c2cc(C)cc(C)c2)C(C)(C)C)c1 | -0.23 | 36.8% | 48.2 µM | 3.98 | –
Cc1cc(C)cc(C(=O)N(NC(=O)c2ccc(C)c(C)c2C)C(C)(C)C)c1 | 0.07 | 54.2% | – | 4.88 | –
Cc1cc(C)cc(C(=O)N(NC(=O)c2cc(F)c(F)cc2F)C(C)(C)C)c1 | – | 1.9% | – | 3.71 | –
Cc1cc(C)cc(C(=O)N(NC(=O)c2ccccc2C)C(C)(C)C)c1 | -0.54 | 22.3% | 79.9 µM | 3.98 | –
Cc1cc(C)cc(C(=O)N(NC(=O)c2ccc(C(C)C)cc2)C(C)(C)C)c1 | -0.02 | 49% | – | 4.91 | –
COc1cc2c(cc1OC)CN(CCc1ccc(NC(=O)c3cccc4c(=O)c5cccc(OC)c5[nH]c34)cc1)CC2 | – | – | – | – | 100%
COc1cccc(C(=O)NN(C(=O)c2cc(C)cc(C)c2)C(C)(C)C)c1C [METHOXYFENOZIDE] | -0.33 | 32% | 44.3 µM | – | –
CCc1ccc(C(=O)NN(C(=O)c2cc(C)cc(C)c2)C(C)(C)C)cc1 [TEBUFENOZIDE] | 0.06 | 53.3% | 21.5 µM | – | –
